Laboratory results taken from patent US11339185B2, “Cyclic dinucleotides as anticancer agents” (Bristol-Myers Squibb Company, priority 2018, dated 2022).
Read-outs that look alike come from different tables or passages of the source.

Key:
[1] = tested on: THP1-Dual cells, IRF pathway (IRF3); test: STING THP1 Reporter Assay, IRF pathway (secreted Lucia luciferase, QUANTI-Luc); type: cell-based; conditions: 10% human plasma, luciferase readout, 100% activation = 100 μM cGAMP, read-out: THP1 Reporter Assays EC50 (μM) IRF3
Text: (§1) THP1-Dual™ cells were derived from the human THP-1 monocyte cell line by stable integration of two inducible reporter constructs. To this end, THP1-Dual™ cells allow the simultaneous study of the NF-κB pathway, by monitoring the activity of SEAP, and the IRF pathway by assessing the activity of a secreted luciferase (Lucia). Both reporter proteins are readily measurable in the cell culture supernatant when using QUANTI-Blue™, a SEAP detection reagent, and QUANTI-Luc™, a luciferase detection reagent.
(§2) THP1-Dual™ cells induce the activation of NF-κB in response to STING agonists. They also trigger the IRF pathway upon stimulation with STING agonists, such as cGAMP. Here, the THP-1-Dual cells were used to assess STING binders for function on the cellular level.
(§3) Serial dilutions of compounds in DMSO were added to low volume 384 well plates at 100 nl/well using an ECHO acoustic dispenser (Labcyte, model 550) to achieve final starting concentration of 100 μM in cell suspension. THP-1 Dual™ STING reporter cells (Invivogen, Dual cells cat #THPD-nfis) were added to the plates with compounds at 15,000 cells in 10 μL per well in RPMI media (Gibco, cat #11875) containing 10% human plasma in a low volume 384-well black wall clear bottom tissue culture plate (Corning, cat #3542) for SEAP assay and low volume solid white plate (Corning, cat #3826) for luciferase assay. One column of the plate was reserved for treatment with cGAMP at 100 μM for 100% activation calculation and one column for no treatment (DMSO only) for baseline activation. Plates were then incubated in 37 OC incubator at 5% CO2 for 20 hours.
(§4) In the SEAP assay, 5 μl of 2× QuantiBlue (Invivogen, cat #Rep-qb2) is added to 384 well black plates seeded with THP1 cells and incubated at 37° C. for 2 hours. Plates were read on the Envision (Perkin Elmer) at 620 nm wavelength (OD620). In the luciferase assay, 5 μl of Quantiluc (Invivogen, Rep-qlc2) is added to white 384 well plates seeded with THP1 cells and read at 5 minutes on the Envision (Perkin Elmer) using a luminescence protocol (RLU). For both cell lines, 100% activation was determined by value (RLU) of THP-1 Dual STING cells stimulated with 100 μM cGAMP (Invivogen, cat #TLRL-NACGA23-5).

[2] = tested on: THP1-Dual cells, NF-κB pathway; test: STING THP1 Reporter Assay, NF-κB pathway (SEAP, QUANTI-Blue); type: cell-based; conditions: 10% human plasma, SEAP readout (OD620), 100% activation = 100 μM cGAMP, read-out: THP1 Reporter Assays EC50 (μM) NFkB
Text: as §1, §2, §3, §4

[3] = target: T1, STING WT: His-TVMV-S-hSTING(155-341)-H232R (Homo sapiens, UniProt Q86WV6, H232R); test: STING HTRF binding assay (time resolved FRET competition), STING WT; conditions: 20 nM His-tagged STING WT cytoplasmic domain, 200 nM fluorescein-labeled cGAMP analog probe, one hour; read-out: HTRF Binding Assays IC50 (μM) WT
T1 construct: STING WT: His-TVMV-S-hSTING(155-341)-H232R
T1 sequence (Q86WV6 with tags, fused parts or gaps H232R): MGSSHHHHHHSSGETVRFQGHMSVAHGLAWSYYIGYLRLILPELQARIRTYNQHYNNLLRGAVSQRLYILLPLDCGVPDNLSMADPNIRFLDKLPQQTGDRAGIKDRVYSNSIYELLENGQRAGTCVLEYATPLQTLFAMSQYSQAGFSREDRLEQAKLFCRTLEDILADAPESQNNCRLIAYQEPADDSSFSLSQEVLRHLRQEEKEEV
Protocol: (§5) A time resolved FRET-based competition binding assay was used to assess test article binding to STING WT and STING AQ. His-tagged STING cytoplasmic domain (WT or AQ) at a concentration of 20 nM was incubated with 2.5 nM Tb-labeled anti-His antibody, test compound, and fluorescein-labeled cGAMP analog probe (BioLog cat. no. C195) at a concentration of 200 nM (STING WT) or 40 nM (STING AQ) in PBS containing 0.005% Tween-20 and 0.1% BSA for one hour. Fluorescence at 495 nm and 520 nm was measured using an EnVision microplate reader to quantify FRET between Tb-labeled anti-His antibody and fluorescein-labeled probe. Background was defined as the signal obtained in the absence of STING protein, and background subtracted FRET ratios were normalized to the maximum signal obtained in the absence of test compound. These values were converted to a percent inhibition. Percent inhibition was determined for test compounds at 11 concentrations. The IC50, defined as the concentration of competing test compound needed to reduce specific binding of the probe by 50%, was calculated using the 4 parameter logistic equation to fit the data

[4] = target: T2, STING AQ: His-TVMV-S-hSTING(155-341)-G230A-R293Q (Homo sapiens, UniProt Q86WV6, G230A/H232R/R293Q); test: STING HTRF binding assay (time resolved FRET competition), STING AQ; conditions: 20 nM His-tagged STING AQ cytoplasmic domain, 40 nM fluorescein-labeled cGAMP analog probe, one hour; read-out: HTRF Binding Assays IC50 (μM) AQ
T2 construct: STING AQ: His-TVMV-S-hSTING(155-341)-G230A-R293Q
T2 sequence (Q86WV6 with tags, fused parts or gaps G230A/H232R/R293Q): as the sequence (Q86WV6 with tags, fused parts or gaps H232R) above, with G99A, R162Q counted along it
Protocol: as §5

EC50 ([1]; 20 hours) [µM] | EC50 ([2]; 20 hours) [µM] | IC50 [3] [µM] | IC50 [4] [µM] | EC50 ([1]; Homo sapiens, THP1-Dual, 20 h) [µM] | EC50 ([2]; Homo sapiens, THP1-Dual, 20 h) [µM] | Compound
41 | 54.6 | 0.19 | 0.01 |  |  | Nc1ncnc2c1ncn2[C@@H]1O[C@@H]2COP(=O)(S)OC[C@@H]3[C@@H](COP(=O)(S)O[C@H]2[C@H]1F)C[C@H]3n1cnc2c(O)n3ccnc3nc21 (single isomer, unassigned) [Example 1-1]
31.3 | 54 | 0.9 | 0.04 |  |  | Nc1ncnc2c1ncn2[C@@H]1O[C@@H]2COP(=O)(S)OC[C@@H]3[C@@H](COP(=O)(S)O[C@H]2[C@H]1F)C[C@H]3n1cnc2c(O)n3ccnc3nc21 (single isomer, unassigned) [Example 1-2]
> 100 | > 100 | 0.84 | 0.02 |  |  | Nc1ncnc2c1ncn2[C@@H]1O[C@@H]2COP(=O)(S)OC[C@@H]3[C@@H](COP(=O)(S)O[C@H]2[C@H]1F)C[C@H]3n1cnc2c(O)n3ccnc3nc21 (single isomer, unassigned) [Example 1-3]
0.39 | 1.21 | 0.01 | 0.002 |  |  | Nc1ncnc2c1ncn2[C@@H]1O[C@@H]2COP(=O)(S)OC[C@@H]3[C@@H](COP(=O)(S)O[C@H]2[C@H]1F)C[C@H]3n1cnc2c(O)n3ccnc3nc21 (single isomer, unassigned) [Example 1-4]
 |  | 0.06 | 0.002 | 3.07 | 7.15 | Nc1ncnc2c1ncn2[C@@H]1C[C@@H]2COP(=O)(S)O[C@@H]3[C@H](O)[C@@H](COP(=O)(S)OC[C@H]21)O[C@H]3n1cnc2c(=O)n3ccnc3[nH]c21 (single isomer, unassigned) [Example 2-1]
93.1 | > 100 | 1.38 | 0.09 |  |  | Nc1ncnc2c1ncn2[C@@H]1O[C@@H]2COP(=O)(S)OC[C@@H]3[C@@H](COP(=O)(S)O[C@H]2[C@H]1F)C[C@H]3n1cnc2c1ncn1ccnc21 (single isomer, unassigned) [Example 3-1]
26.6 | 42.6 | 1.49 | 0.03 |  |  | Nc1ncnc2c1ncn2[C@@H]1O[C@@H]2COP(=O)(S)OC[C@@H]3[C@@H](COP(=O)(S)O[C@H]2[C@H]1F)C[C@H]3n1cnc2c1ncn1ccnc21 (single isomer, unassigned) [Example 3-2]
 |  | 11.1 | 0.1 | > 100 | > 100 | Nc1ncnc2c1ncn2[C@@H]1C[C@@H]2COP(=O)(O)O[C@@H]3[C@H](O)[C@@H](COP(=O)(S)OC[C@H]21)O[C@H]3n1cnc2c(=O)n3ccnc3[nH]c21 (single isomer, unassigned) [Example 4-1]
 |  | > 100 | > 100 | > 100 | > 100 | Nc1ncnc2c1ncn2[C@@H]1C[C@@H]2COP(=O)(S)O[C@H]3[C@@H](O)[C@H](n4cnc5c(=O)n6cc[nH]c6nc54)O[C@@H]3COP(=O)(S)OC[C@H]21 (single isomer, unassigned) [Example 5-1]
> 100 | > 100 | > 100 | 11.8 |  |  | Nc1ncnc2c1ncn2[C@@H]1C[C@@H]2COP(=O)(S)O[C@H]3[C@@H](O)[C@H](n4cnc5c(=O)n6cc[nH]c6nc54)O[C@@H]3COP(=O)(S)OC[C@H]21 (single isomer, unassigned) [Example 5-2]
> 100 | > 100 | > 100 | 5.73 |  |  | Nc1ncnc2c1ncn2[C@@H]1C[C@@H]2COP(=O)(S)O[C@H]3[C@@H](O)[C@H](n4cnc5c(=O)n6cc[nH]c6nc54)O[C@@H]3COP(=O)(S)OC[C@H]21 (single isomer, unassigned) [Example 5-3]
> 100 | > 100 | 34.5 | 0.11 |  |  | Nc1ncnc2c1ncn2[C@@H]1C[C@@H]2COP(=O)(S)O[C@H]3[C@@H](O)[C@H](n4cnc5c(=O)n6cc[nH]c6nc54)O[C@@H]3COP(=O)(S)OC[C@H]21 (single isomer, unassigned) [Example 5-4]
> 100 | > 100 | 6.31 | 0.18 |  |  | Nc1ncnc2c1ncn2[C@@H]1C[C@@H]2COP(=O)(S)O[C@@H]3[C@H](F)[C@@H](COP(=O)(S)OC[C@H]21)O[C@H]3n1cnc2c(=O)n3cc[nH]c3nc21 (single isomer, unassigned) [Example 6-1]
3.18 | 6.99 | 0.13 | 0.01 |  |  | Nc1ncnc2c1ncn2[C@@H]1C[C@@H]2COP(=O)(S)O[C@@H]3[C@H](F)[C@@H](COP(=O)(S)OC[C@H]21)O[C@H]3n1cnc2c(=O)n3cc[nH]c3nc21 (single isomer, unassigned) [Example 6-2]
> 100 | > 100 | 9.24 | 0.22 |  |  | Nc1ncnc2c1ncn2[C@@H]1C[C@@H]2COP(=O)(S)O[C@@H]3[C@H](F)[C@@H](COP(=O)(S)OC[C@H]21)O[C@H]3n1cnc2c(=O)n3cc[nH]c3nc21 (single isomer, unassigned) [Example 6-3]
> 100 | > 100 | 19.4 | 0.63 |  |  | Nc1ncnc2c1ncn2[C@@H]1C[C@@H]2COP(=O)(S)O[C@@H]3[C@H](F)[C@@H](COP(=O)(S)OC[C@H]21)O[C@H]3n1cnc2c(=O)n3cc[nH]c3nc21 (single isomer, unassigned) [Example 6-4]
> 100 | > 100 | 11.1 | 3.41 |  |  | Nc1ncnc2c1ncn2[C@@H]1C[C@@H]2COP(=O)(S)O[C@@H]3[C@H](F)[C@@H](COP(=O)(S)OC[C@H]21)O[C@H]3n1cnc2c1ncn1ccnc21 (single isomer, unassigned) [Example 8-1]
> 100 | > 100 | 3.43 | 0.51 |  |  | Nc1ncnc2c1ncn2[C@@H]1C[C@@H]2COP(=O)(S)O[C@@H]3[C@H](F)[C@@H](COP(=O)(S)OC[C@H]21)O[C@H]3n1cnc2c1ncn1ccnc21 (single isomer, unassigned) [Example 8-2]
> 100 |  | > 100 | 73.5 |  |  | NC(=O)c1cc([C@@H]2C[C@@H]3COP(=O)(S)OC[C@@H]4[C@@H](COP(=O)(S)OC[C@H]32)C[C@H]4n2cnc3c(N)ncnc32)ccn1 (single isomer, unassigned) [Example 15-2]
> 100 | > 100 |  | 0.02 |  |  | Nc1ncnc2c1ncn2[C@@H]1O[C@@H]2COP(=O)(S)OC[C@@H]3[C@@H](COP(=O)(S)O[C@H]2[C@H]1F)C[C@H]3n1cnc2c(=O)[nH]cnc21 (single isomer, unassigned) [Example 22-2]
